In patent publication US11390604B2 (Hoffmann-La Roche Inc., priority 2019, dated 2022):
Structures can show the parent of a compound that is named as a salt.

Each compound was assayed on Acinetobacter baumannii ATCC 17961 (assay: Antimicrobial susceptibility testing: 90% growth inhibitory concentration (IC90) determination). Conditions: ATCC17961, Acinetobacter baumannii ATCC 17961, Iso-Sensitest broth, read-out: ATCC 17961 IC90.
Assay type: cell-based
How it was run: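 Growth was followed kinetically by OD600 at 20-min intervals for 16 h at 35±2 °C, with ~5×10^5 CFU/ml in Iso-Sensitest broth. Compounds were tested as twofold dilutions (e.g. 50–0.097 μM final). The concentration giving 90% inhibition of log-phase growth was reported.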

Structure (SMILES) | IC90 [µM]
Cn1c(-c2cn(CC(F)F)nc2C(F)(F)F)cnc1C(=O)Nc1ccc(C(=O)NC2C3CN(C(=O)C4CCNCC4)CC32)c(Cl)c1 (stereo not shown) [Example 235, N-(3-chloro-4-((3-(piperidine-4-carbonyl)-3-azabicyclo[3.1.0]hexan-6-yl)carbamoyl)phenyl)-5-(1-(2,2-difluoroethyl)-3-(trifluoromethyl)-1H-pyrazol-4-yl)-1-methyl-1H-imidazole-2-carboxamide formate] | 0.268
Cn1c(-c2cn(C3CC3)nc2C(F)(F)F)cnc1C(=O)Nc1ccc(C(=O)N2CCN(C(=O)NC3CCNC3)CC2)c(Cl)c1 (stereo not shown) [Example 236, 4-[2-chloro-4-[[5-[1-cyclopropyl-3-(trifluoromethyl)pyrazol-4-yl]-1-methylimidazole-2-carbonyl]amino]benzoyl]-N-pyrrolidin-3-ylpiperazine-1-carboxamide;formic acid] | 0.27
CCn1cc(-c2cnc(C(=O)Nc3ccc(C(=O)N4CCC(CCN)CC4)c(Cl)c3)n2C)c(C(F)(F)F)n1 [Example 239, N-(4-(4-(2-aminoethyl)piperidine-1-carbonyl)-3-chlorophenyl)-5-(1-ethyl-3-(trifluoromethyl)-1H-pyrazol-4-yl)-1-methyl-1H-imidazole-2-carboxamide hydrochloride] | 0.273
Cn1c(-c2cn(C3CC3)nc2C(F)(F)F)cnc1C(=O)Nc1ccc(C(=O)N2CCN(C(=O)N[C@H]3C[C@@H](N)C3)CC2)c(Cl)c1 [Example 240, rac-N-((1s,3s)-3-aminocyclobutyl)-4-(2-chloro-4-(5-(1-cyclopropyl-3-(trifluoromethyl)-1H-pyrazol-4-yl)-1-methyl-1H-imidazole-2-carboxamido)benzoyl)piperazine-1-carboxamide formate] | 0.274
Cn1c(-c2cn(Cc3ccccc3)nc2C(F)(F)F)cnc1C(=O)Nc1ccc(C(=O)N2CCN(C(=O)C3CCNCC3)CC2)c(Cl)c1 [Example 241, 5-(1-benzyl-3-(trifluoromethyl)-1H-pyrazol-4-yl)-N-(3-chloro-4-(4-(piperidine-4-carbonyl)piperazine-1-carbonyl)phenyl)-1-methyl-1H-imidazole-2-carboxamide hydrochloride] | 0.281
C#CCn1cc(-c2cnc(C(=O)Nc3ccc(C(=O)NCCOCCN)c(CC)c3)n2C)c(C(F)(F)F)n1 [Example 242, N-[4-[2-(2-aminoethoxy)ethylcarbamoyl]-3-ethyl-phenyl]-1-methyl-5-[1-prop-2-ynyl-3-(trifluoromethyl)pyrazol-4-yl]imidazole-2-carboxamide; formic acid] | 0.283
Cn1c(-c2cn(C3CC3)nc2C(F)(F)F)cnc1C(=O)Nc1ccc(C(=O)N2CCN(C(=O)[C@@H]3CCC[C@@H]3N)CC2)c(Cl)c1 [Example 243, N-(4-(4-((1R,2S)-2-aminocyclopentane-1-carbonyl)piperazine-1-carbonyl)-3-chlorophenyl)-5-(1-cyclopropyl-3-(trifluoromethyl)-1H-pyrazol-4-yl)-1-methyl-1H-imidazole-2-carboxamide hydrochloride] | 0.286
Cn1c(-c2cn(CC(F)F)nc2C(F)(F)F)cnc1C(=O)Nc1ccc(S(=O)(=O)N2CCNCC2)cc1 [Example 244, 5-(1-(2,2-difluoroethyl)-3-(trifluoromethyl)-1H-pyrazol-4-yl)-1-methyl-N-(4-(piperazin-1-ylsulfonyl)phenyl)-1H-imidazole-2-carboxamide hydrochloride] | 0.287
C#CCn1cc(-c2cnc(C(=O)Nc3ccc(C(=O)NC4C5CN(C(=O)C6CCNCC6)CC54)c(Cl)c3)n2C)c(C(F)(F)F)n1 (stereo not shown) [Example 245, N-(3-chloro-4-((3-(piperidine-4-carbonyl)-3-azabicyclo[3.1.0]hexan-6-yl)carbamoyl)phenyl)-1-methyl-5-(1-(prop-2-yn-1-yl)-3-(trifluoromethyl)-1H-pyrazol-4-yl)-1H-imidazole-2-carboxamide formate] | 0.288
Cn1c(-c2cn(C3CC3)nc2C(F)(F)F)cnc1C(=O)Nc1ccc(C(=O)N2CCN(C(=O)C[C@H]3CCNC3)CC2)c(Cl)c1 [Example 246, (R)-N-(3-chloro-4-(4-(2-(pyrrolidin-3-yl)acetyl)piperazine-1-carbonyl)phenyl)-5-(1-cyclopropyl-3-(trifluoromethyl)-1H-pyrazol-4-yl)-1-methyl-1H-imidazole-2-carboxamide hydrochloride] | 0.293
Cn1c(-c2cn(C3CC3(F)F)nc2C(F)(F)F)cnc1C(=O)Nc1ccc(C(=O)NCCCCCN)c(Cl)c1 (stereo not shown) [Example 247, N-(4-((5-aminopentyl)carbamoyl)-3-chlorophenyl)-5-(1-(2,2-difluorocyclopropyl)-3-(trifluoromethyl)-1H-pyrazol-4-yl)-1-methyl-1H-imidazole-2-carboxamide] | 0.295
Cn1c(-c2cn(C3CC3(F)F)nc2C(F)(F)F)cnc1C(=O)Nc1ccc(C(=O)NC2[C@H]3CN(C(=O)NC(CN)CCl)C[C@@H]23)c(Cl)c1 (stereo partly drawn) [Example 248, cis-N-(1-amino-3-chloropropan-2-yl)-6-[[2-chloro-4-[[5-[1-(2,2-difluorocyclopropyl)-3-(trifluoromethyl)pyrazol-4-yl]-1-methylimidazole-2-carbonyl]amino]benzoyl]amino]-3-azabicyclo[3.1.0]hexane-3-carboxamide, formate salt] | 0.297
Cn1c(-c2cn(C3CC3)nc2C(F)(F)F)cnc1C(=O)Nc1ccc(C(=O)N2CCC3(CCNCC3)CC2)c(Cl)c1 [Example 249, N-(3-chloro-4-(3,9-diazaspiro[5.5]undecane-3-carbonyl)phenyl)-5-(1-cyclopropyl-3-(trifluoromethyl)-1H-pyrazol-4-yl)-1-methyl-1H-imidazole-2-carboxamide hydrochloride] | 0.3
Cn1c(-c2cn(C3CC3)nc2C(F)(F)F)cnc1C(=O)Nc1ccc(C(=O)N2CCN(C(=O)[C@H]3CCCN3)CC2)c(Cl)c1 [Example 250, (R)-N-(3-chloro-4-(4-prolylpiperazine-1-carbonyl)phenyl)-5-(1-cyclopropyl-3-(trifluoromethyl)-1H-pyrazol-4-yl)-1-methyl-1H-imidazole-2-carboxamide hydrochloride] | 0.302
Cn1c(-c2cn(CCCl)nc2C(F)(F)F)cnc1C(=O)Nc1ccc(C(=O)N2CCN(C(=O)NC3CNC3)CC2)c(Cl)c1 [Example 251, N-(azetidin-3-yl)-4-[2-chloro-4-[[5-[1-(2-chloroethyl)-3-(trifluoromethyl)pyrazol-4-yl]-1-methyl-imidazole-2-carbonyl]amino]benzoyl]pipera-zine-1-carboxamide] | 0.306
Cn1c(-c2cn(C3CC3)nc2C(F)(F)F)cnc1C(=O)Nc1ccc(C(=O)N2CCN(C(=O)CCN)CC2)c(Cl)c1 [Example 252, N-(4-(4-(3-aminopropanoyl)piperazine-1-carbonyl)-3-chlorophenyl)-5-(1-cyclopropyl-3-(trifluoromethyl)-1H-pyrazol-4-yl)-1-methyl-1H-imidazole-2-carboxamide hydrochloride] | 0.308
Cn1c(-c2cn(CC#N)nc2C(F)(F)F)cnc1C(=O)Nc1ccc(C(=O)N[C@H]2C[C@@H](NC(=O)[C@@H]3CCNC3)C2)c(Cl)c1 [Example 253, N-[3-chloro-4-[[3-[[(3R)-pyrrolidine-3-carbonyl]amino]cyclobutyl]car-bamoyl]phenyl]-5-[1-(cyanomethyl)-3-(trifluoromethyl)pyrazol-4-yl]-1-methyl-imidazole-2-carboxamide; formic acid] | 0.309
C=C(C)Cn1cc(-c2cnc(C(=O)Nc3ccc(C(=O)NCCCN)c(Cl)c3)n2C)c(C(F)(F)F)n1 [Example 255, N-(4-((3-aminopropyl)carbamoyl)-3-chlorophenyl)-1-methyl-5-(1-(2-methylallyl)-3-(trifluoromethyl)-1H-pyrazol-4-yl)-1H-imidazole-2-carboxamide tris(2,2,2-trifluoroacetate)] | 0.312
C=C(C)Cn1cc(-c2cnc(C(=O)Nc3ccc(C(=O)N4CCN(C(=O)[C@H]5[C@@H]6CNC[C@@H]65)CC4)c(Cl)c3)n2C)c(C(F)(F)F)n1 [Example 257, rac-N-(4-(4-((1R,5S,6r)-3-azabicyclo[3.1.0]hexane-6-carbonyl)piperazine-1-carbonyl)-3-chlorophenyl)-1-methyl-5-(1-(2-methylallyl)-3-(trifluoromethyl)-1H-pyrazol-4-yl)-1H-imidazole-2-carboxamide hydrochloride] | 0.313
Cn1c(-c2cn(C3CC3)nc2C(F)(F)F)cnc1C(=O)Nc1ccc(C(=O)N2CCN(C(=O)[C@]3(C)CCCN3)CC2)c(Cl)c1 [Example 258, (S)-N-(3-chloro-4-(4-(2-methylpyrrolidine-2-carbonyl)piperazine-1-carbonyl)phenyl)-5-(1-cyclopropyl-3-(trifluoromethyl)-1H-pyrazol-4-yl)-1-methyl-1H-imidazole-2-carboxamide hydrochloride] | 0.314
Cn1c(-c2cn(C3C=C(F)C3)nc2C(F)(F)F)cnc1C(=O)Nc1ccc(C(=O)N[C@H]2[C@@H]3CN(C(=O)C4CCNCC4)C[C@@H]32)c(Cl)c1 (stereo partly drawn) [Example 259, N-(3-chloro-4-(((exo)-3-(piperidine-4-carbonyl)-3 azabicyclo[3.1.0]hexan-6-yl)carbamoyl)phenyl)-5-(1-(3-fluorocyclobut-2-en-1-yl)-3-(trifluoromethyl)-1H-pyrazol-4-yl)-1-methyl-1H-imidazole-2-carboxamide formate] | 0.314
Cn1c(-c2cn(CC3CCC3)nc2C(F)(F)F)cnc1C(=O)Nc1ccc(C(=O)N2CCN(C(=O)N[C@H]3C[C@@H](N)C3)CC2)c(Cl)c1 [Example 260, rac-N-((1s,3s)-3-aminocyclobutyl)-4-(2-chloro-4-(5-(1-(cyclobutylmethyl)-3-(trifluoromethyl)-1H-pyrazol-4-yl)-1-methyl-1H-imidazole-2-carboxamido)benzoyl)piperazine-1-carboxamide hydrochloride] | 0.314
